From patent US11370798B2 (Vertex Pharmaceuticals Incorporated, priority 2012, dated 2022)

tested on: HCT116 colorectal cancer cells; assay: Cisplatin sensitization assay (96 h cell viability MTS); format: cell-based; conditions: compound and Cisplatin added simultaneously, Cisplatin sensitization value;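 further: Test-compound concentration that lowers the Cisplatin IC50 by a set fold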
Protocol: Compounds can be screened for their ability to sensitize HCT116 colorectal cancer cells to Cisplatin using a 96 h cell viability (MTS) assay. […] Compounds and Cisplatin are then both added simultaneously to the cell media in 2-fold serial dilutions from a top final concentration of 10 μM as a full matrix of concentrations in a final cell volume of 200 μl, and the cells are then incubated at 37° C. in 5% CO2. After 96 h, 40 μl of MTS reagent (Promega G358a) is added to each well and the cells are incubated for 1 h at 37° C. in 5% CO2.
Compounds with a Cisplatin sensitization value of <0.02 μM are marked with “+++.” Compounds with a Cisplatin sensitization value>0.02 μM but <0.2 μM are marked with “++.” Compounds with a Cisplatin sensitization value>0.2 μM but <5 μM are marked with “+.”

Row | Compound | Cisplatin Sensitization Assay
1 | Cc1nn(C)cc1-c1ccncc1NC(=O)c1c(N)nn2cc(F)cnc12 [I-C-63, 2-amino-N-(4-(1,3-dimethyl-1H-pyrazol-4-yl)pyridin-3-yl)-6-fluoropyrazolo[1,5-a]pyrimidine-3-carboxamide] | +++ (Cisplatin sensitization value of <0.02 μM)
2 | CN(C)CC(=O)N1CCN(c2c(F)cncc2NC(=O)c2c(N)nn3cc(F)cnc23)CC1 [I-N-153, 2-amino-N-(4-(4-(2-(dimethylamino)acetyl)piperazin-1-yl)-5-fluoropyridin-3-yl)-6-fluoropyrazolo[1,5-a]pyrimidine-3-carboxamide] | ++ (Cisplatin sensitization value>0.02 μM but <0.2 μM)
3 | Nc1nn2cc(Cl)cnc2c1C(=O)Nc1cnccc1-n1ccnc1 [I-N-29, N-(4-(1H-imidazol-1-yl)pyridin-3-yl)-2-amino-6-chloropyrazolo[1,5-a]pyrimidine-3-carboxamide] | ++ (Cisplatin sensitization value>0.02 μM but <0.2 μM)
4 | CN1CCC(NC(=O)C2CCN(c3c(F)cncc3NC(=O)c3c(N)nn4cc(F)cnc34)CC2)C1 (stereo not shown) [I-G-24, 2-amino-6-fluoro-N-(5-fluoro-4-(4-((1-methylpyrrolidin-3-yl)carbamoyl)piperidin-1-yl)pyridin-3-yl)pyrazolo[1,5-a]pyrimidine-3-carboxamide] | +++ (Cisplatin sensitization value of <0.02 μM)
5 | C[C@@H]1CN(C(=O)C2CCN(c3c(F)cncc3NC(=O)c3c(N)nn4cc(F)cnc34)CC2)CCN1 [I-G-45, (R)-2-amino-6-fluoro-N-(5-fluoro-4-(4-(3-methylpiperazine-1-carbonyl)piperidin-1-yl)pyridin-3-yl)pyrazolo[1,5-a]pyrimidine-3-carboxamide] | +++ (Cisplatin sensitization value of <0.02 μM)
6 | Cc1nccnc1-c1ccncc1NC(=O)c1c(N)nn2cc(F)cnc12 [I-C-62, 2-amino-6-fluoro-N-(4-(3-methylpyrazin-2-yl)pyridin-3-yl)pyrazolo[1,5-a]pyrimidine-3-carboxamide] | ++ (Cisplatin sensitization value>0.02 μM but <0.2 μM)
7 | Nc1nn2cc(F)cnc2c1C(=O)Nc1cncc(F)c1N1CCNCC1 [I-N-118, 2-amino-6-fluoro-N-(5-fluoro-4-(piperazin-1-yl)pyridin-3-yl)pyrazolo[1,5-a]pyrimidine-3-carboxamide] | +++ (Cisplatin sensitization value of <0.02 μM)
8 | CO[C@H]1CCN(C(=O)C2CCN(c3c(F)cncc3NC(=O)c3c(N)nn4cc(F)cnc34)CC2)C1 [I-G-99, (S)-2-amino-6-fluoro-N-(5-fluoro-4-(4-(3-methoxypyrrolidine-1-carbonyl)piperidin-1-yl)pyridin-3-yl)pyrazolo[1,5-a]pyrimidine-3-carboxamide] | +++ (Cisplatin sensitization value of <0.02 μM)
9 | CN1CCC(S(=O)(=O)N2CCN(c3ccncc3NC(=O)c3c(N)nn4cc(F)cnc34)CC2)CC1 [I-N-188, 2-amino-6-fluoro-N-(4-(4-((1-methylpiperidin-4-yl)sulfonyl)piperazin-1-yl)pyridin-3-yl)pyrazolo[1,5-a]pyrimidine-3-carboxamide] | +++ (Cisplatin sensitization value of <0.02 μM)
10 | CN1CCN(C(=O)C2CCN(c3c(F)cncc3NC(=O)c3c(N)nn4cc(F)cnc34)CC2)CC12CC2 [I-G-38, 2-amino-6-fluoro-N-(5-fluoro-4-(4-(4-methyl-4,7-diazaspiro[2.5]octane-7-carbonyl)piperidin-1-yl)pyridin-3-yl)pyrazolo[1,5-a]pyrimidine-3-carboxamide] | +++ (Cisplatin sensitization value of <0.02 μM)
11 | Nc1nn2cc(F)cnc2c1C(=O)Nc1cnccc1N1CCC(C(=O)N2CCOCC2)CC1 [I-G-85, 2-amino-6-fluoro-N-(4-(4-(morpholine-4-carbonyl)piperidin-1-yl)pyridin-3-yl)pyrazolo[1,5-a]pyrimidine-3-carboxamide] | +++ (Cisplatin sensitization value of <0.02 μM)
12 | Nc1nn2cc(Cl)cnc2c1C(=O)Nc1cnccc1N1CC[S+]([O-])CC1 [I-N-68, 2-amino-6-chloro-N-(4-(1-oxidothiomorpholino)pyridin-3-yl)pyrazolo[1,5-a]pyrimidine-3-carboxamide] | +++ (Cisplatin sensitization value of <0.02 μM)
13 | CC1(N2CCN(C(=O)C3CCN(c4c(F)cncc4NC(=O)c4c(N)nn5cc(F)cnc45)CC3)CC2)COC1 [I-G-92, 2-amino-6-fluoro-N-(5-fluoro-4-(4-(4-(3-methyloxetan-3-yl)piperazine-1-carbonyl)piperidin-1-yl)pyridin-3-yl)pyrazolo[1,5-a]pyrimidine-3-carboxamide] | +++ (Cisplatin sensitization value of <0.02 μM)
14 | CN1CCN(C2CCN(c3c(F)cncc3NC(=O)c3c(N)nn4cc(F)cnc34)CC2)C(=O)C1 [I-N-151, 2-amino-6-fluoro-N-(5-fluoro-4-(4-(4-methyl-2-oxopiperazin-1-yl)piperidin-1-yl)pyridin-3-yl)pyrazolo[1,5-a]pyrimidine-3-carboxamide] | + (Cisplatin sensitization value>0.2 μM but <5 μM)
15 | CC(=O)N1CCCC12CCN(c1ccncc1NC(=O)c1c(N)nn3cc(F)cnc13)CC2 [I-N-262, N-(4-(1-acetyl-1,8-diazaspiro[4.5]decan-8-yl)pyridin-3-yl)-2-amino-6-fluoropyrazolo[1,5-a]pyrimidine-3-carboxamide] | +++ (Cisplatin sensitization value of <0.02 μM)
16 | Nc1nn2cc(F)cnc2c1C(=O)Nc1cnccc1N1CCC(C(=O)N2CC3(CCO3)C2)CC1 [I-G-90, N-(4-(4-(1-oxa-6-azaspiro[3.3]heptane-6-carbonyl)piperidin-1-yl)pyridin-3-yl)-2-amino-6-fluoropyrazolo[1,5-a]pyrimidine-3-carboxamide] | +++ (Cisplatin sensitization value of <0.02 μM)
17 | CN1CCN(c2c(C#N)cncc2NC(=O)c2c(N)nn3cc(F)cnc23)CC1 [I-N-113, 2-amino-N-(5-cyano-4-(4-methylpiperazin-1-yl)pyridin-3-yl)-6-fluoropyrazolo[1,5-a]pyrimidine-3-carboxamide] | + (Cisplatin sensitization value>0.2 μM but <5 μM)
18 | N#CC1(C(=O)N2CCC(c3ccncc3NC(=O)c3c(N)nn4cc(F)cnc34)CC2)CC1 [I-C-71, 2-amino-N-(4-(1-(1-cyanocyclopropanecarbonyl)piperidin-4-yl)pyridin-3-yl)-6-fluoropyrazolo[1,5-a]pyrimidine-3-carboxamide] | +++ (Cisplatin sensitization value of <0.02 μM)
19 | Nc1nn2cc(F)cnc2c1C(=O)Nc1cnccc1N1CCC(C(=O)N2CCC2)CC1 [I-G-77, 2-amino-N-(4-(4-(azetidine-1-carbonyl)piperidin-1-yl)pyridin-3-yl)-6-fluoropyrazolo[1,5-a]pyrimidine-3-carboxamide] | +++ (Cisplatin sensitization value of <0.02 μM)
20 | Nc1nn2cc(F)cnc2c1C(=O)Nc1cnccc1N1CCCCC1 [I-N-152, 2-amino-6-fluoro-N-(4-(piperidin-1-yl)pyridin-3-yl)pyrazolo[1,5-a]pyrimidine-3-carboxamide] | +++ (Cisplatin sensitization value of <0.02 μM)
21 | N#CCc1cnc2c(C(=O)Nc3cnccc3N3CCNCC3)c(N)nn2c1 [I-N-89, 2-amino-6-(cyanomethyl)-N-(4-(piperazin-1-yl)pyridin-3-yl)pyrazolo[1,5-a]pyrimidine-3-carboxamide] | ++ (Cisplatin sensitization value>0.02 μM but <0.2 μM)
22 | CN1CCOCC1C(=O)N1CCN(c2c(F)cncc2NC(=O)c2c(N)nn3cc(F)cnc23)CC1 (stereo not shown) [I-N-227, 2-amino-6-fluoro-N-(5-fluoro-4-(4-(4-methylmorpholine-3-carbonyl)piperazin-1-yl)pyridin-3-yl)pyrazolo[1,5-a]pyrimidine-3-carboxamide] | +++ (Cisplatin sensitization value of <0.02 μM)
23 | Nc1nn2cc(F)cnc2c1C(=O)Nc1cnccc1N1CCC2(CC1)COC2 [I-N-226, N-(4-(2-oxa-7-azaspiro[3.5]nonan-7-yl)pyridin-3-yl)-2-amino-6-fluoropyrazolo[1,5-a]pyrimidine-3-carboxamide] | +++ (Cisplatin sensitization value of <0.02 μM)
24 | CC(C)Oc1ccncc1NC(=O)c1c(N)nn2cc(CC#N)cnc12 [I-O-35, 2-amino-6-(cyanomethyl)-N-(4-isopropoxypyridin-3-yl)pyrazolo[1,5-a]pyrimidine-3-carboxamide] | +++ (Cisplatin sensitization value of <0.02 μM)
25 | Nc1nn2cc(F)cnc2c1C(=O)Nc1cnccc1O[C@H]1CCCN(C2COC2)C1 [I-O-9, (S)-2-amino-6-fluoro-N-(4-((1-(oxetan-3-yl)piperidin-3-yl)oxy)pyridin-3-yl)pyrazolo[1,5-a]pyrimidine-3-carboxamide] | ++ (Cisplatin sensitization value>0.02 μM but <0.2 μM)
26 | Cn1ccc2cncc(NC(=O)c3c(N)nn4cc(F)cnc34)c21 [I-N-259, 2-amino-6-fluoro-N-(1-methyl-1H-pyrrolo[3,2-c]pyridin-7-yl)pyrazolo[1,5-a]pyrimidine-3-carboxamide] | + (Cisplatin sensitization value>0.2 μM but <5 μM)
27 | CN(C)C(=O)C1CCN(c2ccncc2NC(=O)c2c(N)nn3cc(F)cnc23)CC1 [I-G-2, 2-amino-N-(4-(4-(dimethylcarbamoyl)piperidin-1-yl)pyridin-3-yl)-6-fluoropyrazolo[1,5-a]pyrimidine-3-carboxamide] | +++ (Cisplatin sensitization value of <0.02 μM)
28 | Nc1nn2cc(F)cnc2c1C(=O)Nc1cnccc1N1CCC(C(=O)N2CC(F)(F)C2)CC1 [I-G-80, 2-amino-N-(4-(4-(3,3-difluoroazetidine-1-carbonyl)piperidin-1-yl)pyridin-3-yl)-6-fluoropyrazolo[1,5-a]pyrimidine-3-carboxamide] | +++ (Cisplatin sensitization value of <0.02 μM)
